Measured values as given in patent US20200061062A1, “INHIBITORS OF HUMAN PHOSPHATIDYLINOSITOL 3-KINASE DELTA” (ICOS Corporation, priority 2000, published 2020).
Read-outs that look alike come from different tables or passages of the source.

What was measured:
[1] = target: T1, PI3Kδ (Homo sapiens, UniProt O00329, S253N); experiment: Biochemical assay of PI3K potency and selectivity using 20 μM ATP, Delta; parameters: His tag (pFastbac HTb vector) (N); FLAG; made in house; host or cells: Sf21 insect cells (baculovirus); conditions: 20 μM ATP; read-out: Delta IC50
Text: (§1) Recombinant PI3K heterodimeric complexes consisting of a p110 catalytic subunit and a p85 regulatory subunit were overexpressed using the BAC-TO-BAC® HT baculovirus expression system (GIBCO/BRL), and then purified for use in biochemical assays. The four Class I PI 3-kinases were cloned into baculovirus vectors as follows: […]

[2] = tested on: human neutrophils; experiment: Elastase exocytosis from neutrophils (fMLP-induced); type: cell-based; conditions: neutrophil (PMN) elastase release
Method: Aliquots (8 mL) of heparinized blood from healthy volunteers were layered on 3 mL cushions of 7.3% FICOLL® (Sigma, St. Louis, Mo.) and 15.4% HYPAQUE® (Sigma) and centrifuged at 900 rpm for 30 min at room temperature in a table top centrifuge (Beckman). The neutrophil-rich band just above the FICOLL®-HYPAQUE® cushion was collected and washed with Hanks' balanced salt solution (HBSS) containing 0.1% gelatin. Residual erythrocytes were removed by hypotonic lysis with 0.2% NaCl. The neutrophil preparation was washed twice with HBSS containing 0.1% gelatin and used immediately.
In addition to superoxide generation, activated neutrophils also respond by releasing several proteases that are responsible for the destruction of tissues and cartilage during inflammation. As an indication of protease release, the effect of D-000 on elastase exocytosis was measured. Elastase exocytosis was quantitated by modification of the procedure described by Ossanna et al. (J Clin Invest, 77:1939-1951 (1986)), as follows. Purified human neutrophils (0.2×10^6) (treated with either DMSO or a serial dilution of D-000 in DMSO) were stimulated with fMLP in PBS containing 0.01 mg/mL cytochalasin B, 1.0 μM sodium azide (NaN3), 5 μg/mL L-methionine and 1 μM fMLP for 90 min at 37° C. in a 96-well plate. At the end of the incubation period, the plate was centrifuged for 5 min at 1000 rpm, and 90 μL of the supernatant was transferred to 10 μL of 10 mM solution of an elastase substrate peptide, MeO-suc-Ala-Ala-Pro-Val-pNA, wherein MeO-suc=methoxy-succinyl; pNA=p-nitroanilide (Calbiochem, San Diego, Calif.). Absorbance at 410 nm was monitored for 2 hr in a 96-well plate reader. To measure the relative amounts of elastase excytosed, all absorbance values were normalized to the values without any inhibitor. […] Inhibition was half-maximal at a concentration of about 2-3 μM D-000.
(§2) Using the methods described in Examples 3-5, above, compounds of the invention were tested for inhibitory activity and potency in assays of stimulated B and T cell proliferation, neutrophil (PMN) migration, and neutrophil (PMN) elastase release. In Table 4, the values shown are effective concentrations of the compound (EC50; μM). Where no value is given, no assay was performed.

[3] = target: T2, PI3Kγ (Homo sapiens, UniProt P48736); experiment: Biochemical assay of PI3K potency and selectivity using 20 μM ATP, Gamma; conditions: for Gamma/Delta Ratio: ratio of IC50 values
T2 construct: His tag (pFastbac HTb vector) (N); FLAG (N); made in house; host or cells: Sf21 insect cells (baculovirus)
Text: Recombinant baculoviruses containing the above clones were generated using manufacturer's recommended protocol (Life Technologies). Baculoviruses expressing His-tagged p110α, p110γ, or p110δ catalytic subunit and p85 subunit were coinfected into Sf21 insect cells. To enrich the heterodimeric enzyme complex, an excess amount of baculovirus expressing p85 subunit was infected, and the His-tagged p110 catalytic subunit complexed with p85 was purified on nickel affinity column. […] In an alternate approach, p101 can be cloned into baculovirus, to permit coexpression with its preferred binding partner p110γ. […]

[4] = target: T2, PI3Kγ; experiment: Biochemical assay using 200 μM ATP, Gamma
Method: (§3) PI3Kδ catalyzes a phosphotransfer from γ-[^32P]ATP to PIP2/PS liposomes at the D3′ position of the PIP2 lipid inositol ring. This reaction is MgCl2 dependent and is quenched in high molarity potassium phosphate buffer pH 8.0 containing 30 mM EDTA. […] The reaction products (and all unlabelled products) are transferred to a 96-well, prewetted PVDF filter plate, filtered, and washed in high molarity potassium phosphate. Scintillant is added to the dried wells and the incorporated radioactivity is quantitated.
(§4) This dilution established a final concentration of 200 μM ATP in the reaction volume. The reaction was stopped with 150 μL quench buffer (1.0 M potassium phosphate pH 8.0, 30 mM EDTA). A portion of the quenched solution (180 μL) was then transferred to a PVDF filter plate (Millipore # MAIP NOB prewetted with sequential 200 μL washes of 100% methanol, water, and finally 1.0 M potassium phosphate pH 8.0 wash buffer).
(§5) The PVDF filter plate was aspirated under moderate vacuum (2-5 mm Hg), washed with 5×200 μL of wash buffer, and then dried by aspiration. The filter was subsequently blotted, allowed to air dry completely, and inserted into a Wallac counting cassette with 50 μL of Ecoscint scintillation cocktail added per well.
(§6) Subsequent selectivity assays were done similarly using the same 3× substrate stocks except they contained 0.05 mCi/mL γ[^32P]ATP and 3 mM PIP2. Subsequent selectivity assays also used the same 3× enzyme stocks, except they now contained 3 nM of any given PI3K isoform.
(§7) For all selectivity assays, the test compounds were weighed out and dissolved into 10-50 mM stocks in 100% DMSO (depending on their respective solubilities) and stored at −20° C. […] From these dilutions, 20 μL was added into the assay wells alongside water blanks used for the enzyme (positive) control and the no enzyme (background) control.
(§8) This selectivity protocol is identical to that described above, except the 3× stock ATP concentration was 600 μM.

[5] = tested on: Murine splenocytes (Balb/c); experiment: B cell proliferation in response to cell surface IgM stimulation; type: cell-based; conditions: Mus musculus, Splenocyte; stimulated B cell proliferation; read-out: Mouse BCR Stim (EC50)
Method: In the above experiment, the B cells were stimulated using PANSORBIN®. The effect of D-000 on B cell proliferation response when they were stimulated through their cell surface IgM using anti-IgM antibody also was measured. Murine splenocytes (Balb/c) were plated into 96-well microtiter plates at 2×10^5 cells per well in 10% FBS/RPMI. Appropriate dilutions of test inhibitor in complete medium were added to the cells and the plates were incubated for 30-60 minutes prior to the addition of stimulus. Following the preincubation with test inhibitor an F(ab′)2 preparation of goat antibody specific for the μ-chain of mouse IgM was added to the wells at a final concentration of 25 μg/mL. The plates were incubated at 37° C. for 3 days and 1 μCi of [^3H]-thymidine was added to each well for the final four hours of culture. The plates were harvested onto fiber filters washed and the incorporation of radiolabel was determined using a beta counter (Matrix 96, Packard Instrument Co., Downers Grove, Ill.) and expressed as counts per minute (CPM).
as §2

[6] = target: T3, PI3Kα (Homo sapiens, UniProt P42336); experiment: Biochemical assay using 200 μM ATP, Alpha
T3 construct: His tag (pFastbac HTb vector) (N); FLAG; made in house; host or cells: Sf21 insect cells (baculovirus)

[7] = target: T1, PI3Kδ; experiment: Biochemical assay using 200 μM ATP, Delta;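 also: radiometric filter-binding assay: PI3Kδ transfers ³²P from γ-[³²P]ATP onto PIP2/PS liposomes, counted by scintillation, enzyme-only wells as positive control, no-enzyme wells as background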
[8] = target: T3, PI3Kα; experiment: Biochemical assay of PI3K potency and selectivity using 20 μM ATP, Alpha; conditions: for Alpha/Delta Ratio / IC50: 20 μM ATP; for Alpha/Delta Ratio: ratio of IC50 values, > = hypothetical ratio with 100 μM substituted for the missing IC50; for IC50: read-out: Alpha IC50
Text: as §1

[9] = target: T4, PI3Kβ (Homo sapiens, UniProt P42338); experiment: Biochemical assay using 200 μM ATP, Beta
T4 construct: His tag (pFastbac HTa vector) (N); FLAG (N); made in house; host or cells: Sf21 insect cells (baculovirus)
Method: as §3, §4, §5, §6, §7, §8

[10] = target: T4, PI3Kβ; experiment: Biochemical assay of PI3K potency and selectivity using 20 μM ATP, Beta; conditions: 20 μM ATP; for Beta/Delta Ratio: ratio of IC50 values, > = hypothetical ratio with 100 μM substituted for the missing IC50; for IC50: read-out: Beta IC50
Method: Recombinant PI3K heterodimeric complexes consisting of a p110 catalytic subunit and a p85 regulatory subunit were overexpressed using the BAC-TO-BAC® HT baculovirus expression system (GIBCO/BRL), and then purified for use in biochemical assays. The four Class I PI 3-kinases were cloned into baculovirus vectors as follows:
The 3× substrate for the HTS contained 0.6 mM Na2ATP, 0.10 mCi/mL γ-[^32P]ATP (NEN, Pittsburgh, Pa.), 6 μM PIP2/PS liposomes (Avanti Polar Lipids, Inc., […].), in 20 mM HEPES, pH 7.4.

[11] = read-out: percent activity remaining at 100 μM, 20 μM ATP, 100 μM compound did not inhibit by at least 50%

T2 sequence (P48736 whole entry): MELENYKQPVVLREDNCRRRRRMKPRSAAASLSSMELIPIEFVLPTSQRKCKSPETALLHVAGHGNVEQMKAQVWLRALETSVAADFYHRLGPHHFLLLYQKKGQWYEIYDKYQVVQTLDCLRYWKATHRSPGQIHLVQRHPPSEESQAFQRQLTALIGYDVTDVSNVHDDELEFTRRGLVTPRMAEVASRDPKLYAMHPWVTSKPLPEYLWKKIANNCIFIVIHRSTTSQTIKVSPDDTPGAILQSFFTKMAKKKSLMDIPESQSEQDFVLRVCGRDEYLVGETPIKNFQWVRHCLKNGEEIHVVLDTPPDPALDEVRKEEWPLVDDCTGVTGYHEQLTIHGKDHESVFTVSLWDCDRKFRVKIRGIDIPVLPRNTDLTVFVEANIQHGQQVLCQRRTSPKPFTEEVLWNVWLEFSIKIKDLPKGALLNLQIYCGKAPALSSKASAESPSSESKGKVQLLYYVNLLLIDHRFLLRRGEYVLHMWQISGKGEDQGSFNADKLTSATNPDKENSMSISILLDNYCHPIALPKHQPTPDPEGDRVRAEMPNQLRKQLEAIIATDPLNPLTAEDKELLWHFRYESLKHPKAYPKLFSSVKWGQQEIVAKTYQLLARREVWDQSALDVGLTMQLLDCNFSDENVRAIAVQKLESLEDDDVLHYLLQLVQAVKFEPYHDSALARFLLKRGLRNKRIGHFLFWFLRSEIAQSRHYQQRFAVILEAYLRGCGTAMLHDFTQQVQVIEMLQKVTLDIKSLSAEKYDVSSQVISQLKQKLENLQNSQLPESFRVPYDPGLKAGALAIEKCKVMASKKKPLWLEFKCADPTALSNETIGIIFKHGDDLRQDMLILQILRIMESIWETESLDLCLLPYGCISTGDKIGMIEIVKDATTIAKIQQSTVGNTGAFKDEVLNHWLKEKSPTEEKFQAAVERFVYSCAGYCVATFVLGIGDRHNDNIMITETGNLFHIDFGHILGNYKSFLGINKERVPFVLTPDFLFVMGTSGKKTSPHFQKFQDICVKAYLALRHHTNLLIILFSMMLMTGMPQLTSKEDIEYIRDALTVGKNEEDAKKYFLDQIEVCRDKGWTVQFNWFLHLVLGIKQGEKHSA
T1 sequence (O00329 whole entry S253N): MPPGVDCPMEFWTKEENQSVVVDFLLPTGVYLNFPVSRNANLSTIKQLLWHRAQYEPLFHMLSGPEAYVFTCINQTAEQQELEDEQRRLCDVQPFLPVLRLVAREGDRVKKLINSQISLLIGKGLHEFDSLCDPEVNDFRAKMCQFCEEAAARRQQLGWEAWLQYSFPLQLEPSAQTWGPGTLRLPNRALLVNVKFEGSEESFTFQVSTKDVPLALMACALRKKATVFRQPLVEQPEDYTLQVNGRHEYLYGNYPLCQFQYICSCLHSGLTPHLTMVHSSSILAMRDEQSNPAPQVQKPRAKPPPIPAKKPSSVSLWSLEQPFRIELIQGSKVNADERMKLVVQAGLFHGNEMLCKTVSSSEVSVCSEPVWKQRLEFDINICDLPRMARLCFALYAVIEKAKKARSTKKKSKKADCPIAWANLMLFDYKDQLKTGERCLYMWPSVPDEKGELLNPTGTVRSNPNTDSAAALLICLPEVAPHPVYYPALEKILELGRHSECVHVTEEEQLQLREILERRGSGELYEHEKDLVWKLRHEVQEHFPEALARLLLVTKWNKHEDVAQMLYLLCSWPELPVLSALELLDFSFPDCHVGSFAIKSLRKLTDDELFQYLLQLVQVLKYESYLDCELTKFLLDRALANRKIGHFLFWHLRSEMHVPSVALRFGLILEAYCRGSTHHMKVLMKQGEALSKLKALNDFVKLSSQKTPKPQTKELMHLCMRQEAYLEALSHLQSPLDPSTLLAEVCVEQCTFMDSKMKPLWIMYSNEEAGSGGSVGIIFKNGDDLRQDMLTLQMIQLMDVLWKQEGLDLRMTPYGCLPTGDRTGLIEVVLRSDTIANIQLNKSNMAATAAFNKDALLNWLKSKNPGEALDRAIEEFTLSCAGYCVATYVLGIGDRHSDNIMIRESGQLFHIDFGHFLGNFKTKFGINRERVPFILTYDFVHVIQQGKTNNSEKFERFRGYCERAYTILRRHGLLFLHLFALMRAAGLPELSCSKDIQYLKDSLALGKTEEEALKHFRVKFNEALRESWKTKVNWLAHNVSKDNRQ
T1 sequence (P27986 whole entry partner): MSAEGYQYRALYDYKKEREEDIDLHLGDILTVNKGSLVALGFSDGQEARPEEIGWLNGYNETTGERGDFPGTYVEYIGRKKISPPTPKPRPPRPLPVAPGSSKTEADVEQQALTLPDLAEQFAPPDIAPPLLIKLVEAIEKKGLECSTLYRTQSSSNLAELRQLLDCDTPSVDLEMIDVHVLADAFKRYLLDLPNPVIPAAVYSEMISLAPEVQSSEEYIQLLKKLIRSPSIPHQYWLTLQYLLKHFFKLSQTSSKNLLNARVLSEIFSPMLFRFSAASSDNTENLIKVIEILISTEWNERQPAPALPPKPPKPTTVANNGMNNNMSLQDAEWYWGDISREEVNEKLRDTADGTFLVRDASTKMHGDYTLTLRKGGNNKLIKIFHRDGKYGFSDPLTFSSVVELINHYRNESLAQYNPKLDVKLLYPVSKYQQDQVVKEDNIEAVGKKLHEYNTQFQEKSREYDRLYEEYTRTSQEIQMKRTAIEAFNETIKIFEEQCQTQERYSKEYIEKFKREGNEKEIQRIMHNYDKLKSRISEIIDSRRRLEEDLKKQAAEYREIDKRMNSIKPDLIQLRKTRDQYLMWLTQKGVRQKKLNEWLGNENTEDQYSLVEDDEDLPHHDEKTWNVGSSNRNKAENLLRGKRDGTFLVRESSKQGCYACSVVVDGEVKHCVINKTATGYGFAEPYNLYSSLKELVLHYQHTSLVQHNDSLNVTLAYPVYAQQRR
T4 sequence (P42338 whole entry): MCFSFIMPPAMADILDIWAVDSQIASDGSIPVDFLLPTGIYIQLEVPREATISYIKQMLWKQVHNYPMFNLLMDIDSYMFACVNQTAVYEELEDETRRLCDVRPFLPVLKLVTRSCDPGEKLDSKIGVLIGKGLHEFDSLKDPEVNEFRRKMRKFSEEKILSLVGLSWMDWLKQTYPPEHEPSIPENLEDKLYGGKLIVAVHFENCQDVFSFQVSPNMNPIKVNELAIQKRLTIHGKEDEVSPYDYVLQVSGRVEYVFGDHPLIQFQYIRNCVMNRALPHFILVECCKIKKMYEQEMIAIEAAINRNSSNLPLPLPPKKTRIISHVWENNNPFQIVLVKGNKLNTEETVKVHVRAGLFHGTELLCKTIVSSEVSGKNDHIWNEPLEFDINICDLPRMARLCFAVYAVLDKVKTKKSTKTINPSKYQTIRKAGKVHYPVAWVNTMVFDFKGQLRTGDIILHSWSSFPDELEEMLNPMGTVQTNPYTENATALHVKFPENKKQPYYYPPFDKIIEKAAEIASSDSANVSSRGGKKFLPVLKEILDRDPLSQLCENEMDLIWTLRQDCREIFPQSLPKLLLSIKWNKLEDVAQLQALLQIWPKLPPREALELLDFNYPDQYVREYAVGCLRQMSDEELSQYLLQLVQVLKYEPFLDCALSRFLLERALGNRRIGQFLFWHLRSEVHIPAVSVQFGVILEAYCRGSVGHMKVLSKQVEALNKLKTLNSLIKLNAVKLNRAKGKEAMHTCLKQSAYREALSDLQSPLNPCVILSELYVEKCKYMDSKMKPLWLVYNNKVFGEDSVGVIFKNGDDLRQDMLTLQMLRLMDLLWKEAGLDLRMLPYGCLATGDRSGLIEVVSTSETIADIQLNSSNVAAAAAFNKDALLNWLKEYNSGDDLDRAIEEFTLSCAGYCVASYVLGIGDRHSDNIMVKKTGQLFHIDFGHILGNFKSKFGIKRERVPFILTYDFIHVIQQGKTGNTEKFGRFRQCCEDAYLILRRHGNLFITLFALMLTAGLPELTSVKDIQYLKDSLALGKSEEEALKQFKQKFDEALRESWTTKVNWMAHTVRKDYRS
T4 sequence (P27986 whole entry partner): as the sequence (P27986 whole entry partner) above
T3 sequence (P42336 whole entry): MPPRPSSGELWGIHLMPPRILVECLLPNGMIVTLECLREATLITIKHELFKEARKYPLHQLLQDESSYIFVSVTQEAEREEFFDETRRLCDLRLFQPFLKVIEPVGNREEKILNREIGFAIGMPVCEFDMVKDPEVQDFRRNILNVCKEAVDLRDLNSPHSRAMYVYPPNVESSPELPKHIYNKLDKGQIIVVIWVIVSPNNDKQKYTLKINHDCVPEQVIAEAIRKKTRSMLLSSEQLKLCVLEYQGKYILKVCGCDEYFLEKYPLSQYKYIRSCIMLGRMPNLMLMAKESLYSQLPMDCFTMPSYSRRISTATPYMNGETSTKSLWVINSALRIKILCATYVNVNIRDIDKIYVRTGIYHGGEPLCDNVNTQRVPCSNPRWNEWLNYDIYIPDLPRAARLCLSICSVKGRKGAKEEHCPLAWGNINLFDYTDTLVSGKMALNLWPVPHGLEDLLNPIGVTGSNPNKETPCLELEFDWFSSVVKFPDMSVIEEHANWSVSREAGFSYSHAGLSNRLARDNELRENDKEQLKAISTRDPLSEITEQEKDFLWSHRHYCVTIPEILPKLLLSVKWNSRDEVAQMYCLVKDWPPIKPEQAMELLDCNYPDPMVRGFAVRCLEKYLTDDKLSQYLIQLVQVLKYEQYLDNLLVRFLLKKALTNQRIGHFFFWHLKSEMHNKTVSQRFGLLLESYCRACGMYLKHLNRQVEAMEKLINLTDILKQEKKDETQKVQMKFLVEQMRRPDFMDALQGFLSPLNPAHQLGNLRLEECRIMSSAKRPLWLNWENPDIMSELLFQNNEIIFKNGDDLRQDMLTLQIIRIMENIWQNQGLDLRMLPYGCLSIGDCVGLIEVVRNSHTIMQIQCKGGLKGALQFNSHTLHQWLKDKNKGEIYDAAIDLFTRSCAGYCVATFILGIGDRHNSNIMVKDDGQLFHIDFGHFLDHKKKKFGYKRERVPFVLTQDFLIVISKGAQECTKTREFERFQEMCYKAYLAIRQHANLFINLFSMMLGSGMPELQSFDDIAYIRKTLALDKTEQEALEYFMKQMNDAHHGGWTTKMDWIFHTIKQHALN
T3 sequence (P27986 whole entry partner): as the sequence (P27986 whole entry partner) above

| SMILES | IC50 [1] [nM] | EC50 [2] [nM] | melting point | IC50 [3] [nM] | Gamma/Delta Ratio [3] | Gamma/Delta Ratio [4] | IC50 [4] [nM] | EC50 [5] [nM] | Alpha/Delta Ratio [6] | IC50 [7] [nM] | Alpha/Delta Ratio [8] | IC50 [8] [nM] | Beta/Delta Ratio [9] | IC50 [9] [nM] | Beta/Delta Ratio [10] | IC50 [10] [nM] | remaining activity at 100 µM [8, 11] [%] | remaining activity at 100 µM ([8]; read-out: percent activity remaining at 100 μM) [%] | remaining activity at 100 µM ([10]; read-out: Beta: percent activity remaining at 100 μM, 100 μM compound did not inhibit by at least 50%) [%] |
| --- | --- | --- | --- | --- | --- | --- | --- | --- | --- | --- | --- | --- | --- | --- | --- | --- | --- | --- | --- |
| Cc1ccccc1-n1c(CSc2ncnc3[nH]cnc23)nc2cccc(Cl)c2c1=O [Compound D-010, 5-Chloro-2-(9H-purin-6-ylsulfanylmethyl)-3-o-tolyl-3H-quinazolin-4-one] | 60 | 300 ± 300 | 213.9 °C | 700 | 12 | 27 | 6000 ± 3000 | 200 ± 100 | 658 | 230 ± 200 | 800 | 48000 | 144 | 33000 ± 4000 | 183 | 11000 | – | – | – |
| O=c1c2c(Cl)cccc2nc(CSc2ncnc3[nH]cnc23)n1-c1ccccc1F [Compound D-011, 5-Chloro-3-(2-fluorophenyl)-2-(9H-purin-6-ylsulfanylmethyl)-3H-quinazolin-4-one] | 100 | 900 ± 700 | 244 °C | 1000 | 10 | 244 | 61000 ± 70000 | 300 ± 100 | 700 | 250 ± 200 | >1,000 | – | 420 | 105000 ± 35000 | 550 | 55000 | 72 | – | – |
| O=c1c2c(Cl)cccc2nc(CSc2ncnc3[nH]cnc23)n1-c1ccccc1-c1ccccc1 [Compound D-013, 3-Biphenyl-2-yl-5-chloro-2-(9H-purin-6-ylsulfanylmethyl)-3H-quinazolin-4-one] | 50 | – | 222 to 222.5 °C (dec.) | 2100 | 42 | 24 | 12000 ± 1000 | 1400 | 461 | 510 ± 600 | >2,000 | – | 289 | – | 260 | 13000 | 71 | – | – |
| O=c1c2cc(F)c(F)cc2nc(CSc2ncnc3[nH]cnc23)n1-c1ccccc1Cl [Compound D-027, 3-(2-Chlorophenyl)-6,7-difluoro-2-(9H-purin-6-ylsulfanylmethyl)-3H-quinazolin-4-one] | 600 | 2000 | 207.8 °C | – | – | 15 | 60000 | > 2000 | 37 | 4000 | >169 | – | 26 | 110000 | 97 | 58000 | 59 | – | – |
| O=c1c2cc(F)ccc2nc(CSc2ncnc3[nH]cnc23)n1-c1ccccc1Cl [Compound D-028, 3-(2-Chlorophenyl)-6-fluoro-2-(9H-purin-6-ylsulfanylmethyl)-3H-quinazolin-4-one] | 180 | 1000 | 232.8 to 233 °C | – | – | 18 | 29000 | 400 ± 200 | 125 | 1600 | >556 | – | 101 | – | 69 | 13000 | 67 | – | – |
| Cc1cccc2nc(CSc3ncnc4[nH]cnc34)n(-c3ccccc3F)c(=O)c12 [Compound D-031, 3-(2-Fluorophenyl)-5-methyl-2-(9H-purin-6-ylsulfanylmethyl)-3H-quinazolin-4-one] | 120 | 700 ± 100 | 151.9 to 152.2 °C | – | – | 802 | 155000 ± 60000 | 200 ± 100 | 903 | 200 ± 10 | >833 | 74000 | 707 | 137000 ± 23000 | 83 | 10000 | – | – | – |
| CC(=O)O.O=c1c2ccccc2nc(CSc2ncnc3[nH]cnc23)n1N1CCOCC1 [Compound D-039, 3-morpholin-4-yl-2-(9H-purin-6-ylsulfanylmethyl)-3H-quinazolin-4-one, acetate salt] | 900 | 5000 | – | 38000 | 42 | 44 | – | 900 ± 100 | 65 | 2600 | >111 | – | 50 | – | >111 | – | – | 77 | 66 |
| COc1ccccc1-n1c(CSc2ncnc3[nH]cnc23)nc2cccc(C)c2c1=O [Compound D-047, 3-(2-methoxyphenyl)-5-methyl-2-(9H-purin-6-ylsulfanylmethyl)-3H-quinazolin-4-one] | 90 | 500 ± 200 | – | 500 | 5.6 | 23 | 4500 | 300 | 810 | 200 | 333 | 30000 | 150 | 30000 | 100 | 9000 | – | – | – |
